Measurements as given in PubChem BioAssay (NCI).
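48-hour exposure; five concentrations; linearly interpolated endpoints. TGI: concentration producing complete growth inhibition.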

Columns and labels:
Assay in all cases: NCI-60 cell line screen, 48 h
MDA-MB-231 breast = tested on: MDA-MB-231 breast
SF-268 CNS = tested on: SF-268 CNS
M14 melanoma = tested on: M14 melanoma
HOP-92 NSCLC = tested on: HOP-92 NSCLC
HCT-116 colon = tested on: HCT-116 colon
CAKI-1 renal = tested on: CAKI-1 renal
HT29 colon = tested on: HT29 colon
SF-295 CNS = tested on: SF-295 CNS
HCT-15 colon = tested on: HCT-15 colon
IGROV1 ovarian = tested on: IGROV1 ovarian
SK-MEL-5 melanoma = tested on: SK-MEL-5 melanoma
SN12C renal = tested on: SN12C renal
LOX IMVI melanoma = tested on: LOX IMVI melanoma
EKVX NSCLC = tested on: EKVX NSCLC
SR leukemia = tested on: SR leukemia
NCI-H460 lung = tested on: NCI-H460 lung
NCI-H23 lung = tested on: NCI-H23 lung
BT-549 breast = tested on: BT-549 breast
NCI/ADR-RES ovarian = tested on: NCI/ADR-RES ovarian
786-0 renal = tested on: 786-0 renal
UACC-62 melanoma = tested on: UACC-62 melanoma
HS 578T breast = tested on: HS 578T breast
MCF7 breast = tested on: MCF7 breast
HCC-2998 colon = tested on: HCC-2998 colon
T-47D breast = tested on: T-47D breast
NCI-H522 lung = tested on: NCI-H522 lung
HL-60(TB) leukemia = tested on: HL-60(TB) leukemia
SNB-19 CNS = tested on: SNB-19 CNS
MALME-3M melanoma = tested on: MALME-3M melanoma
DU-145 prostate = tested on: DU-145 prostate
RPMI-8226 leukemia = tested on: RPMI-8226 leukemia
SF-539 CNS = tested on: SF-539 CNS
MOLT-4 leukemia = tested on: MOLT-4 leukemia
NCI-H226 lung = tested on: NCI-H226 lung
KM12 colon = tested on: KM12 colon
HOP-62 NSCLC = tested on: HOP-62 NSCLC
RXF 393 renal = tested on: RXF 393 renal
MDA-MB-435 = tested on: MDA-MB-435
SK-MEL-28 melanoma = tested on: SK-MEL-28 melanoma
A549 NSCLC = tested on: A549 NSCLC
OVCAR-8 ovarian = tested on: OVCAR-8 ovarian
TK-10 renal = tested on: TK-10 renal
UO-31 renal = tested on: UO-31 renal
SW-620 colon = tested on: SW-620 colon
ACHN renal = tested on: ACHN renal
UACC-257 melanoma = tested on: UACC-257 melanoma
PC-3 prostate = tested on: PC-3 prostate
SNB-75 CNS = tested on: SNB-75 CNS
OVCAR-4 ovarian = tested on: OVCAR-4 ovarian
SK-OV-3 ovarian = tested on: SK-OV-3 ovarian
COLO 205 colon = tested on: COLO 205 colon

Measured: TGI

NC1=NNC2(C(N)=N1)c1ccccc1-c1ccccc12
> 10 µM: all assays above
